Experimental data: patent US20170334934A1, “Macrocyclic picolinamides as fungicides” (DOW AGROSCIENCES LLC, priority 2014, published 2017)
Like-named read-outs stand apart in the source and are kept apart here.

Columns and labels:
[1] = system: Mycosphaerella graminicola; Anamorph: Zymoseptoria tritici; experiment: Fungicidal activity: Leaf Blotch of Wheat (SEPTTR), wheat seedlings; format: in vivo; settings: Low Volume (121.5 g/H), wheat
Protocol: Example A: Evaluation of Fungicidal Activity: Leaf Blotch of Wheat (Mycosphaerella graminicola; Anamorph: Zymoseptoria tritici; Bayer Code […]) Technical grades of materials were dissolved in acetone, which were then mixed with nine volumes of water containing 110 ppm Triton X-100. The fungicide solutions were applied onto wheat seedlings using an automated booth sprayer to run-off. All sprayed plants were allowed to air dry prior to further handling. All fungicides were evaluated using the aforementioned method for their activity vs. all target diseases, unless stated otherwise. Wheat leaf blotch and brown rust activity were also evaluated using track spray applications, in which case the fungicides were formulated as EC formulations, containing 0.1% Trycol 5941 in the spray solutions. Wheat plants (variety Yuma) were grown from seed in a greenhouse in 50% mineral soil/50% soil-less Metro mix until the first leaf was fully emerged, with 7-10 seedlings per pot. These plants were inoculated with an aqueous spore suspension of Zymoseptoria tritici either prior to or after fungicide treatments. After inoculation the plants were kept in 100% relative humidity (one day in a dark dew chamber followed by two to three days in a lighted dew chamber at 20° C.) to permit spores to germinate and infect the leaf. The plants were then transferred to a greenhouse set at 20° C. for disease to develop. When disease symptoms were fully expressed on the 1st leaves of untreated plants, infection levels were assessed on a scale of 0 to 100 percent disease severity. Percent disease control was calculated using the ratio of disease severity on treated plants relative to untreated plants.

[2] = system: Puccinia triticina; experiment: Fungicidal activity: Wheat Brown Rust (PUCCRT), wheat seedlings; format: in vivo; settings: Low Volume (121.5 g/H)
Protocol: Technical grades of materials were dissolved in acetone, which were then mixed with nine volumes of water containing 110 ppm Triton X-100. The fungicide solutions were applied onto wheat seedlings using an automated booth sprayer to run-off. All sprayed plants were allowed to air dry prior to further handling. All fungicides were evaluated using the aforementioned method for their activity vs. all target diseases, unless stated otherwise. Wheat leaf blotch and brown rust activity were also evaluated using track spray applications, in which case the fungicides were formulated as EC formulations, containing 0.1% Trycol 5941 in the spray solutions. Wheat plants (variety Yuma) were grown from seed in a greenhouse in 50% mineral soil/50% soil-less Metro mix until the first leaf was fully emerged, with 7-10 seedlings per pot. These plants were inoculated with an aqueous spore suspension of Zymoseptoria tritici either prior to or after fungicide treatments. After inoculation the plants were kept in 100% relative humidity (one day in a dark dew chamber followed by two to three days in a lighted dew chamber at 20° C.) to permit spores to germinate and infect the leaf. The plants were then transferred to a greenhouse set at 20° C. for disease to develop. When disease symptoms were fully expressed on the 1st leaves of untreated plants, infection levels were assessed on a scale of 0 to 100 percent disease severity. Percent disease control was calculated using the ratio of disease severity on treated plants relative to untreated plants. Example B: Evaluation of Fungicidal Activity: Wheat Brown Rust (Puccinia triticina; Synonym: Puccinia recondita f. sp. tritici; Bayer Code PUCCRT) Wheat plants (variety Yuma) were grown from seed in a greenhouse in 50% mineral soil/50% soil-less Metro mix until the first leaf was fully emerged, with 7-10 seedlings per pot. These plants were inoculated with an aqueous spore suspension of Puccinia triticina either prior to or after fungicide treatments. After inoculation the plants were kept in a dark dew room at 22° C. with 100% relative humidity overnight to permit spores to germinate and infect the leaf. The plants were then transferred to a greenhouse set at 24° C. for disease to develop. Fungicide formulation, application and disease assessment followed the procedures as described in the Example A.

[3] = 24 h, 1 Day Protectant, read-out: SEPTTR disease control rating, 1DP
[4] = 72 h, 3 Day Curative, read-out: SEPTTR disease control rating, 3DC
[5] = 24 h, 1 Day Protectant, read-out: PUCCRT disease control rating, 1DP
[6] = 72 h, 3 Day Curative, read-out: PUCCRT disease control rating, 3DC

Structure (SMILES)	melting point	pest or weed control at 121.5 g/ha [1, 3]	pest or weed control at 121.5 g/ha [1, 4]	pest or weed control at 121.5 g/ha [2, 5]	pest or weed control at 121.5 g/ha [2, 6]
C[C@@H]1OC(=O)[C@@H](NC(=O)OC(C)(C)C)CCOC[C@H]1O [Compound 24, tert-butyl ((3R,4S,7S)-3-hydroxy-4-methyl-6-oxo-1,5-dioxonan-7-yl)carbamate]	148 to 152 °C	–	–	–	–
CC(C)CO[C@@H]1COCC[C@H](NC(=O)OC(C)(C)C)C(=O)O[C@H]1C [Compound 29]	99 to 103 °C	–	–	–	–
COc1ccnc(C(=O)N[C@H]2CCO[C@H](Cc3ccc(F)cc3)[C@@H](Oc3ccccc3)[C@H](C)OC2=O)c1OC(C)=O [Compound 75]	–	> 70%	< 70%	> 70%	> 70%

Further lines, with some results ahead:

melting point	Structure (SMILES)	pest or weed control at 121.5 g/ha [1, 3]	pest or weed control at 121.5 g/ha [1, 4]	pest or weed control at 121.5 g/ha [2, 5]	pest or weed control at 121.5 g/ha [2, 6]
43 to 48 °C	COc1ccnc(C(=O)N[C@H]2CCOC[C@@H](OCCCC(F)(F)F)[C@H](C)OC2=O)c1OC(C)=O [Compound 101]	< 70%	< 70%	> 70%	> 70%
80 to 83 °C	C[C@@H]1OC(=O)[C@@H](NC(=O)OC(C)(C)C)CCOC[C@H]1OCCCC(F)(F)F [Compound 30]	–	–	–	–
